{"source": "patent US12258327B2", "about": "“5-membered heteroaryl-containing aminopyridine compounds as EGFR inhibitors” (YUHAN CORPORATION, priority 2021, dated 2025)", "key": {"EGFR del19/C797S": {"target": "EGFR del19/C797S (Homo sapiens, UniProt P00533, C797S/DEL746-750)", "assay": "Biochemical EGFR kinase assay (Lance Ultra TR-FRET), double mutant del19/C797S", "outline": "(§1)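 Kinase activity is measured by TR-FRET phosphopeptide detection. Compounds span 0.003 μM to 10 μM; the 1 h reaction at room temperature is quenched with EDTA, then labelled antibody (2 nM) is incubated 60 min before reading.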"}, "EGFR wildtype (WT)": {"target": "EGFR wildtype (WT) (Homo sapiens, UniProt P00533)", "sequence (P00533 25-1210)": "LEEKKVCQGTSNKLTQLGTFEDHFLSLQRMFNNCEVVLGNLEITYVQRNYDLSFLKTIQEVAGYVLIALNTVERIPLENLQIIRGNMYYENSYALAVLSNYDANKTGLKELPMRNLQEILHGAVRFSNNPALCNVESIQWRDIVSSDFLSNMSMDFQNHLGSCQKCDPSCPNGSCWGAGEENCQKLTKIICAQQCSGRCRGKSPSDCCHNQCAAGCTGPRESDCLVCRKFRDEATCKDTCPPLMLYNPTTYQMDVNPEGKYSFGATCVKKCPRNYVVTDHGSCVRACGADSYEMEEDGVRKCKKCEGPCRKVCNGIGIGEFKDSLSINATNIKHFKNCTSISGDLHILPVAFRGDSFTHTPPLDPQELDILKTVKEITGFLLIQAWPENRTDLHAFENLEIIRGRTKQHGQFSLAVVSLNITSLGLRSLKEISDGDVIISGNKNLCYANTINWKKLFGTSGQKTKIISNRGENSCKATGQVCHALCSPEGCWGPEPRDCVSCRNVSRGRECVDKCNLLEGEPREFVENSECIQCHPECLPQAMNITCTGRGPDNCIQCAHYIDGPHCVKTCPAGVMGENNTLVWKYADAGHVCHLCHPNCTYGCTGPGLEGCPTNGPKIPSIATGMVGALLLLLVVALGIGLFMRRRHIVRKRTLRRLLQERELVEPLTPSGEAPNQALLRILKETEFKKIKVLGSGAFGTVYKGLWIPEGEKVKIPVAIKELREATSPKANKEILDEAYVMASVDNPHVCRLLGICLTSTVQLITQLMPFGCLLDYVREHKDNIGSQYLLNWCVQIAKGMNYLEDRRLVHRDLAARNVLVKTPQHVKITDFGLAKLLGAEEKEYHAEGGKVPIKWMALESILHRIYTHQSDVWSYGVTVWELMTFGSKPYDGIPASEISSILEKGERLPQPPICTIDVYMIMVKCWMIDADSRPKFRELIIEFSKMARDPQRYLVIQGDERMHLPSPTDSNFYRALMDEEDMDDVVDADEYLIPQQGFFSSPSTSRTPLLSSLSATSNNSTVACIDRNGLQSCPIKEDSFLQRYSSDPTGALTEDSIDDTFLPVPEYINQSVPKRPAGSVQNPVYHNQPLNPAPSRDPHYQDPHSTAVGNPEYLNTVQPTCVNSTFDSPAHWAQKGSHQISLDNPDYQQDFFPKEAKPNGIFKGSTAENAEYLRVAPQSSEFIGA", "assay": "Biochemical EGFR kinase assay (Lance Ultra TR-FRET), wildtype", "outline": "as §1"}, "EGFR L858R/C797S": {"target": "EGFR L858R/C797S (Homo sapiens, UniProt P00533, C797S/L858R)", "sequence (P00533 25-1210 C797S/L858R)": "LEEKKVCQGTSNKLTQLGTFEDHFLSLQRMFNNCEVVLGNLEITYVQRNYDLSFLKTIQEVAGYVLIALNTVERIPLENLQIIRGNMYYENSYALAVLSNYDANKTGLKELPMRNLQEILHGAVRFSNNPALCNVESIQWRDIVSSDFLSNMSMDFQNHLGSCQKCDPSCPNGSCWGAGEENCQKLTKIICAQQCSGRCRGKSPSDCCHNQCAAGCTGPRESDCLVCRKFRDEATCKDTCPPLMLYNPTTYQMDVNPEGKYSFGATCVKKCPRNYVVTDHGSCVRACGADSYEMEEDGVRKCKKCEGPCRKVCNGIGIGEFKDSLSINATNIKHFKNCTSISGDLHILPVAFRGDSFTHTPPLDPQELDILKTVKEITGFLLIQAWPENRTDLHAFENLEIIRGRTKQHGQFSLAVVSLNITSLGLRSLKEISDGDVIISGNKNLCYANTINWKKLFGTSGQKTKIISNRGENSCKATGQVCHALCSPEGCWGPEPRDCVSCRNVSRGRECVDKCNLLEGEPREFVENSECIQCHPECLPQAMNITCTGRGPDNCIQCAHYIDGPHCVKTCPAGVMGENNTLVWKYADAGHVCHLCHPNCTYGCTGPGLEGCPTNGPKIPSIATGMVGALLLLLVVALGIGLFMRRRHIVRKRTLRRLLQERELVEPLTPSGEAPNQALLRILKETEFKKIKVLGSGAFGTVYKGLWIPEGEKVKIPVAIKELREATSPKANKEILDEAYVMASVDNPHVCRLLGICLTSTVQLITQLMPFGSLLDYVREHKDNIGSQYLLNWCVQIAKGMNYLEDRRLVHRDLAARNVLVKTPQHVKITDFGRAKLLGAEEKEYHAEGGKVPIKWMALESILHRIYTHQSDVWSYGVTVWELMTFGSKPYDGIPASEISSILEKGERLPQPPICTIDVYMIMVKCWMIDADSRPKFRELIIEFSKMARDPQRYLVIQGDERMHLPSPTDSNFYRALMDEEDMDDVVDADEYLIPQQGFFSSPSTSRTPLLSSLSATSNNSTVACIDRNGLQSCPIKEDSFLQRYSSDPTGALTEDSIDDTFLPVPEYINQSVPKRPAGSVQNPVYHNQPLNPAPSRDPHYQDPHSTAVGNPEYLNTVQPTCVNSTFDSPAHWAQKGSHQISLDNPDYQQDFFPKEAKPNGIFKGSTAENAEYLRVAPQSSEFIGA", "assay": "Biochemical EGFR kinase assay (Lance Ultra TR-FRET), double mutant L858R/C797S", "outline": "as §1"}, "EGFR del19/T790M/C797S": {"target": "EGFR del19/T790M/C797S (Homo sapiens, UniProt P00533, C797S/DEL746-750/T790M)", "sequence (P00533 with tags, fused parts or gaps DEL746-750/T790M/C797S)": "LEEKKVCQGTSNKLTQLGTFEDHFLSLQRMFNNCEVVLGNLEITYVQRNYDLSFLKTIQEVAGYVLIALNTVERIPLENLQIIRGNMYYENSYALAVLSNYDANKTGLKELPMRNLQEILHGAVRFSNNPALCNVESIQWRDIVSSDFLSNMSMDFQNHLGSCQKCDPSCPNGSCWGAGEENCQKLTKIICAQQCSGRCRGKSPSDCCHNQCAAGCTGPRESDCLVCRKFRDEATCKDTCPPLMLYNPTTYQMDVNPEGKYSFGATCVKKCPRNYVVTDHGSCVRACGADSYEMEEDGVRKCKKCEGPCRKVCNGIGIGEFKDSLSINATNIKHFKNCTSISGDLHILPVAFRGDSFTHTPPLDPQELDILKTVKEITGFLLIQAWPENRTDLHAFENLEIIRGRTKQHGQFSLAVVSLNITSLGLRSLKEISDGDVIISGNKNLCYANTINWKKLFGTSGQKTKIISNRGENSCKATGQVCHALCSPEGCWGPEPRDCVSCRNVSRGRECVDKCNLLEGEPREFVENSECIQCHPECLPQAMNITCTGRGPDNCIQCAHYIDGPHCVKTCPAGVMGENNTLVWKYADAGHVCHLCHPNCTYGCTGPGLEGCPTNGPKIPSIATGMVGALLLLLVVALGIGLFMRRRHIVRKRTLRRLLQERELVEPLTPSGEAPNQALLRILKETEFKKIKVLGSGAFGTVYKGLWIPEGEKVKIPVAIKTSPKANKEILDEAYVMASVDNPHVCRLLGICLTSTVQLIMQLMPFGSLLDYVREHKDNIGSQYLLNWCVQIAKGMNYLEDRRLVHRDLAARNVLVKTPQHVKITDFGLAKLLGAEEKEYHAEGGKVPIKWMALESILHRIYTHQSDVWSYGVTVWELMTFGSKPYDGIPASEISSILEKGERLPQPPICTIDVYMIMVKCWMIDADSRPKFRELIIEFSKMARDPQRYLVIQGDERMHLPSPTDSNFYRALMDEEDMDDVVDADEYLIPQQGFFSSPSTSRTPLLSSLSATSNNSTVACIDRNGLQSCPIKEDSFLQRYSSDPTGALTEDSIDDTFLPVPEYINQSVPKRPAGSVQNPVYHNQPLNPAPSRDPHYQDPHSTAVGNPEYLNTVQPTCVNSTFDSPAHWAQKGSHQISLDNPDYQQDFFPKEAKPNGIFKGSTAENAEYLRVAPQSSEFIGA", "assay": "Biochemical EGFR kinase assay (Lance Ultra TR-FRET), triple mutant del19/T790M/C797S", "outline": "as §1"}, "EGFR L858R/T790M/C797S": {"target": "EGFR L858R/T790M/C797S (Homo sapiens, UniProt P00533, C797S/L858R/T790M)", "sequence (P00533 25-1210 T790M/C797S/L858R)": "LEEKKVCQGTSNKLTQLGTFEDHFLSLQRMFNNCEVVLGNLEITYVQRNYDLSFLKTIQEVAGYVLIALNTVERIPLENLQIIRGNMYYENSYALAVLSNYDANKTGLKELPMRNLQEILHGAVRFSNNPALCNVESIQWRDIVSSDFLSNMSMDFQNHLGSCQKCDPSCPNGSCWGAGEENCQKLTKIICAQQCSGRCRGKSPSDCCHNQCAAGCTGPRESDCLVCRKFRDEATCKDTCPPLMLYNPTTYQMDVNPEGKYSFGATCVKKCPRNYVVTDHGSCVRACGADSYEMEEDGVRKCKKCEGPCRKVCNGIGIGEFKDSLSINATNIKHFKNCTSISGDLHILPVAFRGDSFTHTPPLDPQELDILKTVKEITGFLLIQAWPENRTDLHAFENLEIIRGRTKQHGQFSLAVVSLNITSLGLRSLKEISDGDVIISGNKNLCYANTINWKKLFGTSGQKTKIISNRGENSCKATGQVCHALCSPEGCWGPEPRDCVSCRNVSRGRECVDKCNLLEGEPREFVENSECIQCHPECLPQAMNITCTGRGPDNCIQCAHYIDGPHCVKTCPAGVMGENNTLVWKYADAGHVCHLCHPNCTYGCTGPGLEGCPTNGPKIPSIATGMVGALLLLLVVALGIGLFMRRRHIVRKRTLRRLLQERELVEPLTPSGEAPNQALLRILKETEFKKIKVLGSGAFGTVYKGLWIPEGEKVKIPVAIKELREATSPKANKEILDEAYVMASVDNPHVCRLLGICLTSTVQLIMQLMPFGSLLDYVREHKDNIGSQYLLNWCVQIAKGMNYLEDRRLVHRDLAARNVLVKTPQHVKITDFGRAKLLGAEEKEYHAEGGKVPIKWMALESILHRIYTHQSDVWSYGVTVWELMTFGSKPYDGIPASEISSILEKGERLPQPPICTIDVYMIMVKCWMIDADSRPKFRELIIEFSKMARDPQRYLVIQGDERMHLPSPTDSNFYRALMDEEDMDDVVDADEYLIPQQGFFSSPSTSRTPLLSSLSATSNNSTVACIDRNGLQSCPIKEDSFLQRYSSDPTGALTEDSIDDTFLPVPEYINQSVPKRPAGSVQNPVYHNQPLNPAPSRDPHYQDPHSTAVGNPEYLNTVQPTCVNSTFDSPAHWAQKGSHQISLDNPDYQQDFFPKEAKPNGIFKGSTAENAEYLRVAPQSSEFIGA", "assay": "Biochemical EGFR kinase assay (Lance Ultra TR-FRET), triple mutant L858R/T790M/C797S", "outline": "as §1"}, "[1]": {"details": "IC50 del19/C797S (nM) 100 μM ATP, 100 μM ATP"}, "[2]": {"details": "Km ATP, read-out: IC50 del19/C797S (nM) Km ATP"}, "[3]": {"details": "IC50 WT (nM) 100 μM ATP, 100 μM ATP"}, "[4]": {"details": "Km ATP, read-out: IC50 WT (nM) Km ATP"}, "[5]": {"details": "IC50 L858R/C797S (nM) 100 μM ATP, 100 μM ATP"}, "[6]": {"details": "IC50 del19/T790M/C797S (nM) 100 μM ATP, 100 μM ATP"}, "[7]": {"details": "Km ATP, read-out: IC50 del19/T790M/C797S (nM) Km ATP"}, "[8]": {"details": "IC50 L858R/T790M/C797S (nM) 100 μM ATP, 100 μM ATP"}, "[9]": {"details": "Km ATP, read-out: IC50 L858R/T790M/C797S (nM) Km ATP"}, "[10]": {"details": "Km ATP, read-out: IC50 L858R/C797S (nM) Km ATP"}}, "note": "Like-named read-outs stand apart in the source and are kept apart here.", "data": [{"compound": "C[C@]1(O)CC[C@@H](Nc2cc(Nc3ccnc(-c4cnn(S(=O)(=O)C5CC5)c4)n3)nnc2-c2ccn(CC(F)(F)F)n2)CC1", "note": "[Example 374, (1s,4s)-4-((6-((2-(1-(Cyclopropylsulfonyl)-1H-pyrazol-4-yl)pyrimidin-4-yl)amino)-3-(1-(2,2,2-trifluoroethyl)-1H-pyrazol-3-yl)pyridazin-4-yl)amino)-1-methylcyclohexan-1-ol]", "values": [{"measurement": "IC50", "setting": "EGFR del19/C797S; Km ATP, read-out: IC50 del19/C797S, Km ATP", "value": 241, "unit": "nM"}, {"measurement": "IC50", "setting": "EGFR wildtype (WT); Km ATP, read-out: IC50 WT, Km ATP", "value": 1050, "unit": "nM"}, {"measurement": "IC50", "setting": "EGFR L858R/C797S; Km ATP, read-out: IC50 L858R/C797S, Km ATP", "value": 25.9, "unit": "nM"}, {"measurement": "IC50", "setting": "EGFR del19/T790M/C797S; Km ATP, read-out: IC50 del19/T790M/C797S, Km ATP", "value": 0.3, "unit": "nM"}, {"measurement": "IC50", "setting": "EGFR L858R/T790M/C797S; Km ATP, read-out: IC50 L858R/T790M/C797S, Km ATP", "value": 0.6, "unit": "nM"}]}, {"compound": "O=S(=O)(C1CC1)n1cc(-c2nccc(Nc3cc(NC[C@H]4CC[C@@H](O)CC4)c(-c4ccn(C(F)F)n4)cn3)n2)cn1", "note": "[Example 30, (1s,4s)-4-(((2-((2-(1-(Cyclopropylsulfonyl)-1H-pyrazol-4-yl)pyrimidin-4-yl)amino)-5-(1-(difluoromethyl)-1H-pyrazol-3-yl)pyridin-4-yl)amino)methyl)cyclohexan-1-ol]", "values": [{"measurement": "IC50", "setting": "EGFR del19/C797S; [1]", "value": 2.2, "unit": "nM"}, {"measurement": "IC50", "setting": "EGFR del19/C797S; [2]", "value": 0.5, "unit": "nM"}, {"measurement": "IC50", "setting": "EGFR wildtype (WT); [3]", "value": "> 10000", "unit": "nM"}, {"measurement": "IC50", "setting": "EGFR wildtype (WT); [4]", "value": 15.4, "unit": "nM"}, {"measurement": "IC50", "setting": "EGFR L858R/C797S; [5]", "value": 41.3, "unit": "nM"}, {"measurement": "IC50", "setting": "EGFR del19/T790M/C797S; [6]", "value": 2.4, "unit": "nM"}, {"measurement": "IC50", "setting": "EGFR del19/T790M/C797S; [7]", "value": 0.6, "unit": "nM"}, {"measurement": "IC50", "setting": "EGFR L858R/T790M/C797S; [8]", "value": 2.8, "unit": "nM"}, {"measurement": "IC50", "setting": "EGFR L858R/T790M/C797S; [9]", "value": 0.3, "unit": "nM"}]}, {"compound": "C[C@]1(O)CC[C@@H](Nc2cc(Nc3ccnc(-c4cnn(C5CC5)c4)n3)ncc2-c2ccn(C(F)F)n2)CC1", "note": "[Example 140, (1s,4s)-4-((2-((2-(1-Cyclopropyl-1H-pyrazol-4-yl)pyrimidin-4-yl)amino)-5-(1-(difluoromethyl)-1H-pyrazol-3-yl)pyridin-4-yl)amino)-1-methylcyclohexan-1-ol]", "values": [{"measurement": "IC50", "setting": "EGFR del19/C797S; [1]", "value": 37.2, "unit": "nM"}, {"measurement": "IC50", "setting": "EGFR del19/C797S; [2]", "value": 27.3, "unit": "nM"}, {"measurement": "IC50", "setting": "EGFR wildtype (WT); [3]", "value": 8960, "unit": "nM"}, {"measurement": "IC50", "setting": "EGFR wildtype (WT); [4]", "value": 137, "unit": "nM"}, {"measurement": "IC50", "setting": "EGFR L858R/C797S; [5]", "value": 91.5, "unit": "nM"}, {"measurement": "IC50", "setting": "EGFR L858R/C797S; [10]", "value": 7.1, "unit": "nM"}, {"measurement": "IC50", "setting": "EGFR del19/T790M/C797S; [6]", "value": 3.7, "unit": "nM"}, {"measurement": "IC50", "setting": "EGFR del19/T790M/C797S; [7]", "value": 1, "unit": "nM"}, {"measurement": "IC50", "setting": "EGFR L858R/T790M/C797S; [8]", "value": 3.4, "unit": "nM"}, {"measurement": "IC50", "setting": "EGFR L858R/T790M/C797S; [9]", "value": 1.1, "unit": "nM"}]}, {"compound": "O=S(=O)(C1CC1)n1cc(-c2nccc(Nc3cc(N[C@H]4CC[C@](O)(CO)CC4)c(-c4ccn(C(F)F)n4)cn3)n2)cn1", "note": "[Example 188, (1s,4s)-4-((2-((2-(1-(Cyclopropylsulfonyl)-1H-pyrazol-4-yl)pyrimidin-4-yl)amino)-5-(1-(difluoromethyl)-1H-pyrazol-3-yl)pyridin-4-yl)amino)-1-(hydroxymethyl)cyclohexan-1-ol]", "values": [{"measurement": "IC50", "setting": "EGFR del19/C797S; [1]", "value": 0.3, "unit": "nM"}, {"measurement": "IC50", "setting": "EGFR del19/C797S; [2]", "value": 0.3, "unit": "nM"}, {"measurement": "IC50", "setting": "EGFR wildtype (WT); [3]", "value": "> 10000", "unit": "nM"}, {"measurement": "IC50", "setting": "EGFR wildtype (WT); [4]", "value": 6.1, "unit": "nM"}, {"measurement": "IC50", "setting": "EGFR L858R/C797S; [5]", "value": 7.8, "unit": "nM"}, {"measurement": "IC50", "setting": "EGFR L858R/C797S; [10]", "value": 1.1, "unit": "nM"}, {"measurement": "IC50", "setting": "EGFR del19/T790M/C797S; [6]", "value": 0.2, "unit": "nM"}, {"measurement": "IC50", "setting": "EGFR del19/T790M/C797S; [7]", "value": 0.3, "unit": "nM"}, {"measurement": "IC50", "setting": "EGFR L858R/T790M/C797S; [8]", "value": 0.2, "unit": "nM"}, {"measurement": "IC50", "setting": "EGFR L858R/T790M/C797S; [9]", "value": 0.1, "unit": "nM"}]}, {"compound": "Cn1ccc(-c2cnc(Nc3ccnc(-c4cnn(S(=O)(=O)C5CC5)c4)n3)cc2N[C@H]2CC[C@](O)(C(F)(F)F)CC2)n1", "note": "[Example 94, (1s,4s)-4-((2-((2-(1-(Cyclopropylsulfonyl)-1H-pyrazol-4-yl)pyrimidin-4-yl)amino)-5-(1-methyl-1H-pyrazol-3-yl)pyridin-4-yl)amino)-1-(trifluoromethyl)cyclohexan-1-ol]", "values": [{"measurement": "IC50", "setting": "EGFR del19/C797S; read-out: IC50 del19/C797S (nM) 100 μM ATP, 100 μM ATP", "value": 54.1, "unit": "nM"}, {"measurement": "IC50", "setting": "EGFR wildtype (WT); read-out: IC50 WT (nM) 100 μM ATP, 100 μM ATP", "value": "> 10000", "unit": "nM"}, {"measurement": "IC50", "setting": "EGFR L858R/C797S; read-out: IC50 L858R/C797S (nM) 100 μM ATP, 100 μM ATP", "value": 58.1, "unit": "nM"}, {"measurement": "IC50", "setting": "EGFR del19/T790M/C797S; read-out: IC50 del19/T790M/C797S (nM) 100 μM ATP, 100 μM ATP", "value": 3.4, "unit": "nM"}, {"measurement": "IC50", "setting": "EGFR L858R/T790M/C797S; read-out: IC50 L858R/T790M/C797S (nM) 100 μM ATP, 100 μM ATP", "value": 4, "unit": "nM"}]}, {"compound": "Cc1ncc(-c2cnc(Nc3ccnc(-c4cnn(S(=O)(=O)C5CC5)c4)n3)cc2N[C@H]2CC[C@@H](O)CC2)s1", "note": "[Example 75, (1s,4s)-4-((2-((2-(1-(Cyclopropylsulfonyl)-1H-pyrazol-4-yl)pyrimidin-4-yl)amino)-5-(2-methylthiazol-5-yl)pyridin-4-yl)amino)cyclohexan-1-ol]", "values": [{"measurement": "IC50", "setting": "EGFR del19/C797S; [1]", "value": 37.1, "unit": "nM"}, {"measurement": "IC50", "setting": "EGFR wildtype (WT); [3]", "value": "> 10000", "unit": "nM"}, {"measurement": "IC50", "setting": "EGFR L858R/C797S; [5]", "value": 173, "unit": "nM"}, {"measurement": "IC50", "setting": "EGFR del19/T790M/C797S; [6]", "value": 1.1, "unit": "nM"}, {"measurement": "IC50", "setting": "EGFR L858R/T790M/C797S; [8]", "value": 16.8, "unit": "nM"}]}, {"compound": "CN(C)C[C@H]1CC[C@@H](Nc2cc(Nc3ccnc(-c4cnn(S(=O)(=O)C5CC5)c4)n3)ncc2-c2cc(C(C)(C)O)n(C)n2)CC1", "note": "[Example 302, 2-(3-(6-((2-(1-(Cyclopropylsulfonyl)-1H-pyrazol-4-yl)pyrimidin-4-yl)amino)-4-(((1s,4s)-4-((dimethylamino)methyl)cyclohexyl)amino)pyridin-3-yl)-1-methyl-1H-pyrazol-5-yl)propan-2-ol]", "values": [{"measurement": "IC50", "setting": "EGFR del19/C797S; [1]", "value": 0.3, "unit": "nM"}, {"measurement": "IC50", "setting": "EGFR del19/C797S; [2]", "value": 0.2, "unit": "nM"}, {"measurement": "IC50", "setting": "EGFR wildtype (WT); [3]", "value": 38.9, "unit": "nM"}, {"measurement": "IC50", "setting": "EGFR wildtype (WT); [4]", "value": 0.2, "unit": "nM"}, {"measurement": "IC50", "setting": "EGFR L858R/C797S; [5]", "value": 0.2, "unit": "nM"}, {"measurement": "IC50", "setting": "EGFR L858R/C797S; [10]", "value": 0.1, "unit": "nM"}, {"measurement": "IC50", "setting": "EGFR del19/T790M/C797S; [6]", "value": 0.4, "unit": "nM"}, {"measurement": "IC50", "setting": "EGFR del19/T790M/C797S; [7]", "value": 0.3, "unit": "nM"}, {"measurement": "IC50", "setting": "EGFR L858R/T790M/C797S; [8]", "value": 0.2, "unit": "nM"}, {"measurement": "IC50", "setting": "EGFR L858R/T790M/C797S; [9]", "value": 0.1, "unit": "nM"}]}]}
